Experimental data published in patent US9717247B2, “Synergistic fungicidal active combinations” (BAYER CROPSCIENCE AG, priority 2003, dated 2017).

Legend:
Gibberella zeae = type: cell-based; settings: 0.3 ppm; in vitro, PDB, 3 days of incubation
Botrytis cinerea [1] = test: Botrytis cinerea test (bean)/protective; settings: protective, 2 days after inoculation
Method: After the spray coating has dried on, 2 small pieces of agar colonized by Botrytis cinerea are placed onto each leaf. The inoculated plants are placed in a darkened chamber at about 20° C. and 100% relative atmospheric humidity.
The size of the infected areas on the leaves is evaluated 2 days after the inoculation.

Pyricularia oryzae = type: cell-based; settings: 3 ppm; in vitro, PDB, 3 days of incubation
Botrytis cinerea [2] = test: Botrytis cinerea test (in vitro)/microtitre plates; type: cell-based; settings: 3 ppm, PDB, 7 days of incubation
Pyrenophora teres = Pyrenophora teres test (barley)/curative; settings: in Hordeum vulgare, 288 h, read-out: Efficacy in % found
Method: Pyrenophora teres Test (Barley)/Curative • Solvent: 50 parts by weight of N,N-dimethylacetamide • Emulsifier: 1 part by weight of alkylaryl polyglycol ether
To test for curative activity, young plants are sprayed with a conidia suspension of Pyrenophora teres. The plants remain in an incubation cabinet at 20° C. and 100% relative atmospheric humidity for 48 hours.
The plants are placed in a greenhouse at a temperature of about 20° C. and a relative atmospheric humidity of about 80%.
Evaluation is carried out 12 days after the inoculation.

Alternaria solani = Alternaria solani test (tomato)/protective; type: in vivo; settings: protective, 3 days after inoculation
Puccinia recondita = Puccinia recondita test (wheat)/curative; settings: application rate 62.5 g/ha, curative, evaluation 8 days after inoculation
Method: Puccinia recondita Test (Wheat)/Curative • Solvent: 50 parts by weight of N,N-dimethylacetamide • Emulsifier: 1 part by weight of alkylaryl polyglycol ether
To test for curative activity, young plants are sprayed with a conidia suspension of Puccinia recondita. The plants remain in an incubation cabinet at 20° C. and 100% relative atmospheric humidity for 48 hours.
The plants are placed in a greenhouse at a temperature of about 20° C. and a relative atmospheric humidity of about 80% to promote the development of rust pustules.
(§1) Evaluation is carried out 8 days after the inoculation.

Plasmopara viticola = Plasmopara viticola test (grapevine)/protective; type: in vivo; settings: protective, 6 days after inoculation
Sphaerotheca fuliginea = Sphaerotheca fuliginea test (cucumber)/protective; type: in vivo; settings: Podosphaera fuliginea, 168 h, protective, 7 days after inoculation, read-out: Efficacy in % found; for pest or weed control at 1 g/ha: application rate 1 g/ha; for pest or weed control at 2 g/ha: application rate 2 g/ha; for pest or weed control at 10 g/ha: application rate 10 g/ha
[3] = test system: Erysiphe graminis f.sp. hordei; test: Erysiphe test (barley)/protective; type: in vivo; settings: application rate 12.5 g/ha, protective, evaluation 6 days after inoculation
Rhizoctonia solani = Rhizoctonia solani test (in vitro)/microtitre plates; type: cell-based; settings: PDB, 5 days of incubation
Method: Rhizoctonia solani Test (In Vitro)/Microtitre Plates The microtest is carried out in microtitre plates using potato dextrose broth (PDB) as liquid test medium. The active compounds are used as technical grade a.i., dissolved in acetone. For inoculation, a mycelium suspension of Rhizoctonia solani is used. After 5 days of incubation in the dark and with shaking (10 Hz) for each filled cavity of the microtitre plates, the light transmittance is determined with the aid of a spectrophotometer.

[4] = test system: Erysiphe graminis f.sp. hordei; test: Erysiphe test (barley)/curative; type: in vivo; settings: application rate 25 g/ha, curative, evaluation 6 days after inoculation
Leptosphaeria nodorum [5] = test: Leptosphaeria nodorum test (wheat)/curative; settings: application rate 25 g/ha, curative, evaluation 8 days after inoculation
Method: Leptosphaeria nodorum Test (Wheat)/Curative • Solvent: 50 parts by weight of N,N-dimethylacetamide • Emulsifier: 1 part by weight of alkylaryl polyglycol ether
To test for curative activity, young plants are sprayed with a conidia suspension of Leptosphaeria nodorum.
The plants are placed in a greenhouse at a temperature of about 15° C. and a relative atmospheric humidity of about 80%.
as §1

Leptosphaeria nodorum [6] = test: Leptosphaeria nodorum test (wheat)/protective; type: in vivo; settings: application rate 25 g/ha, protective, evaluation 11 days after inoculation
Phytophthora infestans = settings: in vivo

## Cc1nn(C)c(F)c1C(=O)Nc1ccccc1C(C)CC(C)C (stereo not shown) [(1-2), N-[2-(1,3-dimethylbutyl)phenyl]-5-fluoro-1,3-dimethyl-1H-pyrazole-4-carboxamide]
Gibberella zeae
  Efficacy in % found: 39%
Botrytis cinerea [1]; application rate 5 g/ha
  Efficacy in % found: 33%
Botrytis cinerea [1]; application rate 10 g/ha
  Efficacy in % found: 64%
Botrytis cinerea [1]; application rate 20 g/ha
  Efficacy in % found: 66%
Pyricularia oryzae
  Efficacy in % found: 17%
Botrytis cinerea [2]
  Efficacy in % found: 35%
Pyrenophora teres
  pest or weed control at 25 g/ha: 29%
  pest or weed control at 62.5 g/ha: 71%
Alternaria solani; application rate 1 g/ha
  Efficacy in % found: 3%
Alternaria solani; application rate 2 g/ha
  Efficacy in % found: 23%
Puccinia recondita
  Efficacy in % found: 94%
Plasmopara viticola; application rate 25 g/ha
  Efficacy in % found: 0%
Plasmopara viticola; application rate 50 g/ha
  Efficacy in % found: 0%
Sphaerotheca fuliginea; application rate 0.5 g/ha
  pest or weed control at 0.5 g/ha: 0%
Sphaerotheca fuliginea
  pest or weed control at 1 g/ha: 18%
  pest or weed control at 2 g/ha: 30%
Sphaerotheca fuliginea; application rate 4 g/ha
  pest or weed control at 4 g/ha: 20%
[3]
  Efficacy in % found: 0%
Rhizoctonia solani; 0.003 ppm
  Efficacy in % found: 30%
Rhizoctonia solani; 1 ppm
  Efficacy in % found: 40%
[4]
  Efficacy in % found: 0%

## Cc1nn(C)c(F)c1C(=O)Nc1ccccc1C(C)CC(C)(C)C (stereo not shown) [(1-8), 5-fluoro-1,3-dimethyl-N-[2-(1,3,3-trimethylbutyl)phenyl]-1H-pyrazole-4-carboxamide]
Pyrenophora teres
  pest or weed control at 25 g/ha: 14%
[3]
  Efficacy in % found: 11%
[4]
  Efficacy in % found: 0%

## CC(C)CC(C)c1ccccc1NC(=O)c1ccccc1I (stereo not shown) [(1-13), N-[2-(1,3-dimethylbutyl)phenyl]-2-iodobenzamide]
Alternaria solani; application rate 2 g/ha
  Efficacy in % found: 0%
Leptosphaeria nodorum [5]
  Efficacy in % found: 0%
Sphaerotheca fuliginea
  pest or weed control at 1 g/ha: 10%
[3]
  Efficacy in % found: 0%
Leptosphaeria nodorum [6]
  Efficacy in % found: 13%

## CO/N=C(/C1=NOCCO1)c1ccccc1Oc1ncnc(Oc2ccccc2Cl)c1F [(2-2) fluoxastrobin, fluoxastrobin]
Pyrenophora teres
  pest or weed control at 25 g/ha: 0%
Leptosphaeria nodorum [5]
  Efficacy in % found: 29%
Sphaerotheca fuliginea
  pest or weed control at 2 g/ha: 37%

## CO/N=C(/C(=O)OC)c1ccccc1COc1ccccc1C [(2-9) kresoxim-methyl, kresoxim-methyl]
Puccinia recondita
  Efficacy in % found: 0%

## OC(Cc1ccccc1Cl)(Cn1nc[nH]c1=S)C1(Cl)CC1 (stereo not shown) [(3-15) prothioconazole, prothioconazole]
Sphaerotheca fuliginea
  pest or weed control at 1 g/ha: 43%
[3]
  Efficacy in % found: 67%
Leptosphaeria nodorum [6]
  Efficacy in % found: 13%
[4]
  Efficacy in % found: 22%

## CC(C)(C)C(O)(CCc1ccc(Cl)cc1)Cn1cncn1 (stereo not shown) [(3-17) tebuconazole, tebuconazole]
Pyrenophora teres
  pest or weed control at 25 g/ha: 29%
Leptosphaeria nodorum [5]
  Efficacy in % found: 29%
Sphaerotheca fuliginea
  pest or weed control at 2 g/ha: 10%

## Cc1ccc(C(C)NC(=O)[C@H](NC(=O)OC(C)C)C(C)C)cc1 (stereo partly shown) [(5-1) iprovalicarb, iprovalicarb]
Phytophthora infestans
  Efficacy in % found: 64%

## CC(C)OC(=O)N[C@H](C(=O)N[C@H](C)c1nc2ccc(F)cc2s1)C(C)C [(5-3) benthiavalicarb, benthiavalicarb]
Phytophthora infestans
  Efficacy in % found: 50%

## CC(C)CC(C)c1sccc1NC(=O)c1cn(C)nc1C(F)(F)F (stereo not shown) [(6-14) penthiopyrad, penthiopyrad]
Puccinia recondita
  Efficacy in % found: 44%

## COC(=O)Nc1nc2ccccc2[nH]1 [(10-3) carbendazim, carbendazim]
Botrytis cinerea [2]
  Efficacy in % found: 86%

## CCCOC(=O)NCCCN(C)C [(11-2) propamocarb, propamocarb]
Rhizoctonia solani; 1 ppm
  Efficacy in % found: 7%

## CC(C)NC(=O)N1CC(=O)N(c2cc(Cl)cc(Cl)c2)C1=O [(12-4) iprodione, iprodione]
Botrytis cinerea [1]; application rate 5 g/ha
  Efficacy in % found: 13%
Botrytis cinerea [1]; application rate 10 g/ha
  Efficacy in % found: 54%
Botrytis cinerea [1]; application rate 20 g/ha
  Efficacy in % found: 47%
Sphaerotheca fuliginea
  pest or weed control at 10 g/ha: 0%

## CCCN(CCOc1c(Cl)cc(Cl)cc1Cl)C(=O)n1ccnc1 [(14-2) prochloraz, prochloraz]
Puccinia recondita
  Efficacy in % found: 0%

## [O-][n+]1nc(-n2ccnc2)nc2ccc(Cl)cc21 [(14-3) triazoxide, triazoxide]
Pyricularia oryzae
  Efficacy in % found: 3%

## N#Cc1c[nH]cc1-c1cccc2c1OC(F)(F)O2 [(16-2) fludioxonil, fludioxonil]
Puccinia recondita
  Efficacy in % found: 0%

## CCO[PH](=O)O [(17-1) fosetyl-A1, fosetyl-A1]
Plasmopara viticola; application rate 500 g/ha
  Efficacy in % found: 33%
Plasmopara viticola; application rate 1000 g/ha
  Efficacy in % found: 58%

## CSC1=N[C@@](C)(c2ccccc2)C(=O)N1Nc1ccccc1 [(19-3) fenamidone]
Gibberella zeae
  Efficacy in % found: 15%

## CCCN(CC)CC1COC2(CCC(C(C)(C)C)CC2)O1 (stereo not shown) [(19-10) spiroxamine, spiroxamine]
Puccinia recondita
  Efficacy in % found: 0%
Sphaerotheca fuliginea
  pest or weed control at 10 g/ha: 0%

## CSC1=N[C@@](C)(c2ccccc2)C(=O)N1Nc1ccccc1 [(19-13) fenamidone, fenamidone]
Phytophthora infestans
  Efficacy in % found: 47%

## O=C(Nc1ccccc1)N(Cc1ccc(Cl)cc1)C1CCCC1 [(20-1) pencycuron, pencycuron]
Rhizoctonia solani; 1 ppm
  Efficacy in % found: 54%

## Cn1cc(C(=O)Nc2ccc(F)cc2-c2ccc(Cl)c(Cl)c2)c(C(F)F)n1 [(24-1), N-(3′,4′-dichloro-5-fluoro-1,1′-biphenyl-2-yl)-3-(difluoromethyl)-1-methyl-1H-pyrazole-4-carboxamide]
Phytophthora infestans
  Efficacy in % found: 0%
Rhizoctonia solani; 0.003 ppm
  Efficacy in % found: 50%
